Measured values: the supplement of paper PMC10883282
Structures can show the parent of a compound that is named as a salt. ± gives the standard deviation of the averaged measurements.

System: SYO-1
Experiment: relative viability vs DMSO control (72 h) (fraction); higher = more viable cells
Summary of the method: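 Plates held 72 h at 37 °C and 5% CO2 contained sarcoma cell lines seeded in 384-well format to reach 80–90% confluence, plus 2.5 µl of serially diluted compound added after 24 h. Source plate concentrations ran from 10 mM to 0.0002 mM, with 0.1% DMSO as vehicle and a 5 µM positive control. Percent growth from ATPLite readings, averaged over up to triplicate wells, gave relative viability. Values were rescaled with 1 as full and 0 as none.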

SMILES	relative viability (0.00017 µM)	relative viability (0.00051 µM)	relative viability (0.00152 µM)	relative viability (0.00457 µM)	relative viability (0.01372 µM)	relative viability (0.04115 µM)	relative viability (0.1235 µM)	relative viability (0.3704 µM)	relative viability (1.111 µM)	relative viability (3.333 µM)	relative viability (10 µM)	relative viability (2 pM)	relative viability (5 pM)	relative viability (15 pM)	relative viability (50 pM)	relative viability (0.00014 µM)	relative viability (0.00041 µM)	relative viability (0.0012 µM)	relative viability (0.0037 µM)	relative viability (0.011 µM)	relative viability (200 fM)	relative viability (600 fM)
Cc1ccc(F)c(NC(=O)Nc2ccc(-c3cccc4[nH]nc(N)c34)cc2)c1 [Linifanib]	0.98 ± 0.036	0.968 ± 0.087	0.957 ± 0.066	0.941 ± 0.035	0.906 ± 0.049	0.845 ± 0.085	0.76 ± 0.13	0.751 ± 0.093	0.769 ± 0.016	0.753 ± 0.055	0.711 ± 0.031											
CC(C)N1CCN(Cc2cnc(-c3cc(-c4cccc5[nH]ccc45)cc4[nH]ncc34)o2)CC1 [Nemiralisib]	1.02 ± 0.013	0.981 ± 0.046	0.981 ± 0.036	0.974 ± 0.049	0.981 ± 0.025	0.991 ± 0.02	0.9659 ± 0.0068	0.968 ± 0.017	0.882 ± 0.025	0.697 ± 0.028	-0.0515 ± 0.012											
COCc1c(-c2cc3cc(C)cc(OC)c3s2)c2c(N)ncnn2c1CN1CCNC(=O)C1 [Rogaratinib]	1.01 ± 0.048	0.974 ± 0.054	0.952 ± 0.059	0.924 ± 0.067	0.84 ± 0.059	0.765 ± 0.082	0.634 ± 0.05	0.613 ± 0.071	0.6 ± 0.057	0.568 ± 0.056	0.464 ± 0.06											
Cc1cc(Nc2ncnc3ccc(NC4=NC(C)(C)CO4)cc23)ccc1Oc1ccn2ncnc2c1 [Tucatinib]	1.03 ± 0.024	1.04 ± 0.026	1.02 ± 0.015	1.01 ± 0.021	0.99 ± 0.027	0.981 ± 0.038	1.01 ± 0.022	0.97 ± 0.064	0.969 ± 0.019	0.959 ± 0.027	0.841 ± 0.041											
O=C(Nc1cnn2ccc(N3CCC[C@@H]3c3cc(F)ccc3F)nc12)N1CC[C@H](O)C1 [Larotrectinib]	1.034 ± 0.0067	1.02 ± 0.021	0.979 ± 0.016	0.973 ± 0.047	0.946 ± 0.06	0.948 ± 0.063	0.926 ± 0.075	0.937 ± 0.043	0.885 ± 0.058	0.903 ± 0.062	0.875 ± 0.055											
CN1CCC(COc2cnc(-c3cccc(Cn4nc(-c5cccc(C#N)c5)ccc4=O)c3)nc2)CC1 [Tepotinib]	1 ± 0.042	0.983 ± 0.042	0.974 ± 0.063	0.919 ± 0.061	0.946 ± 0.05	0.912 ± 0.038	0.916 ± 0.031	0.931 ± 0.06	0.884 ± 0.037	0.824 ± 0.033	0.608 ± 0.055											
C[C@@H]1CCN(C(=O)CC#N)C[C@@H]1N(C)c1ncnc2[nH]ccc12 [Tofacitinib]	1.01 ± 0.051	0.969 ± 0.061	0.966 ± 0.072	0.923 ± 0.024	0.887 ± 0.039	0.902 ± 0.062	0.916 ± 0.043	0.888 ± 0.02	0.891 ± 0.053	0.868 ± 0.032	0.766 ± 0.044											
N#CC[C@H](C1CCCC1)n1cc(-c2ncnc3[nH]ccc23)cn1 [Ruxolitinib]	0.969 ± 0.039	0.975 ± 0.034	0.958 ± 0.035	0.945 ± 0.029	0.964 ± 0.026	0.969 ± 0.059	0.931 ± 0.043	0.941 ± 0.095	0.945 ± 0.048	0.892 ± 0.037	0.641 ± 0.014											
C=CC(=O)N1CCC[C@@H](n2nc(-c3ccc(Oc4ccccc4)cc3)c3c(N)ncnc32)C1 [Ibrutinib]	0.992 ± 0.034	0.959 ± 0.047	0.923 ± 0.036	0.933 ± 0.042	0.923 ± 0.046	0.892 ± 0.045	0.868 ± 0.041	0.861 ± 0.026	0.759 ± 0.055	0.557 ± 0.027	0.39 ± 0.02											
COc1c(OCCCN2CCOCC2)ccc2c1N=C(NC(=O)c1cnc(N)nc1)N1CCN=C21 [Copanlisib]	1 ± 0.011	0.945 ± 0.023	0.911 ± 0.051	0.79 ± 0.06	0.754 ± 0.041	0.693 ± 0.02	0.651 ± 0.052	0.52 ± 0.02	0.374 ± 0.012	0.171 ± 0.0084	0.0829 ± 0.006											
COc1cccc2c1C(=O)c1c(O)c3c(c(O)c1C2=O)C[C@@](O)(C(=O)CO)C[C@@H]3O[C@H]1C[C@H](N)[C@H](O)[C@H](C)O1 [Doxorubicin Hydrochloride]	0.967 ± 0.064	0.938 ± 0.048	0.899 ± 0.054	0.818 ± 0.06	0.549 ± 0.038	0.29 ± 0.025	0.175 ± 0.035	0.127 ± 0.015	0.0941 ± 0.01	0.0937 ± 0.025	0.0765 ± 0.011											
CO[C@H]1C[C@@H]2CC[C@@H](C)[C@@](O)(O2)C(=O)C(=O)N2CCCC[C@H]2C(=O)O[C@H]([C@H](C)C[C@@H]2CC[C@@H](OP(C)(C)=O)[C@H](OC)C2)CC(=O)[C@H](C)/C=C(\C)[C@@H](O)[C@@H](OC)C(=O)[C@H](C)C[C@H](C)/C=C/C=C/C=C/1C [Ridaforolimus]	0.941 ± 0.022	0.924 ± 0.024	0.915 ± 0.026	0.89 ± 0.037	0.868 ± 0.035	0.832 ± 0.041	0.79 ± 0.042	0.775 ± 0.038	0.748 ± 0.056	0.707 ± 0.058	0.672 ± 0.062											
COc1cc2nccc(Oc3ccc(NC(=O)Nc4cc(C)on4)c(Cl)c3)c2cc1OC [Tivozanib]	0.97 ± 0.049	0.952 ± 0.04	0.935 ± 0.051	0.941 ± 0.023	0.887 ± 0.051	0.796 ± 0.053	0.765 ± 0.02	0.706 ± 0.03	0.618 ± 0.065	0.523 ± 0.025	0.393 ± 0.027											
C[C@@H](c1ccc2nccn2c1)n1nnc2ncc(-c3cnn(C)c3)nc21 [Volitinib]	0.96 ± 0.038	0.999 ± 0.065	1 ± 0.025	0.979 ± 0.03	0.985 ± 0.024	0.992 ± 0.032	1.01 ± 0.087	0.98 ± 0.051	0.996 ± 0.058	0.977 ± 0.085	1.03 ± 0.047											
COc1cc2c(cc1O)CCN[C@]21CS[C@@H]2c3c(OC(C)=O)c(C)c4c(c3[C@H](COC1=O)N1[C@@H]2[C@H]2c3c(cc(C)c(OC)c3O)C[C@@H]([C@@H]1O)N2C)OCO4 [Trabectedin]												0.489 ± 0.027	0.422 ± 0.039	0.299 ± 0.027	0.194 ± 0.13	0.0855 ± 0.18	0.0855 ± 0.18	0.26 ± 0.031	0.315 ± 0.0091	0.312 ± 0.02	0.4804 ± 0.002	0.512 ± 0.024
Cc1nc(-c2cn3c(n2)-c2ccc(-c4cnn(C(C)(C)C(N)=O)c4)cc2OCC3)n(C(C)C)n1 [Taselisib]	0.9262 ± 0.0077	0.924 ± 0.029	0.924 ± 0.035	0.895 ± 0.051	0.864 ± 0.042	0.794 ± 0.053	0.759 ± 0.041	0.721 ± 0.046	0.684 ± 0.046	0.61 ± 0.034	0.476 ± 0.033											
COc1cc2c(Oc3ccc4[nH]c(C)cc4c3F)ncnc2cc1OCCCN1CCCC1 [Cediranib]	0.965 ± 0.02	0.962 ± 0.039	0.967 ± 0.04	0.946 ± 0.043	0.91 ± 0.074	0.723 ± 0.036	0.5301 ± 0.0011	0.471 ± 0.019	0.453 ± 0.019	0.483 ± 0.012	0.482 ± 0.027											
Cc1nc(NC(=O)N2CCC[C@H]2C(N)=O)sc1-c1ccnc(C(C)(C)C(F)(F)F)c1 [Alpelisib]	0.975 ± 0.071	0.944 ± 0.068	0.93 ± 0.049	0.919 ± 0.031	0.85 ± 0.099	0.805 ± 0.095	0.735 ± 0.1	0.68 ± 0.11	0.633 ± 0.063	0.6 ± 0.019	0.5521 ± 0.0025											
COc1cc2/c(=N/c3ccc(Br)cc3F)nc[nH]c2cc1OCC1CCN(C)CC1 [Vandetanib]	0.926 ± 0.02	0.924 ± 0.043	0.927 ± 0.028	0.899 ± 0.067	0.889 ± 0.041	0.848 ± 0.034	0.793 ± 0.011	0.65 ± 0.015	0.4003 ± 0.0022	0.0998 ± 0.016	-0.00567 ± 0.0018											
